What is called GI50 is the concentration giving 50% growth inhibition.

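Grown in 96-well plates, cells were treated for 48 hours with each compound at five concentrations. Insufficient inhibition: endpoint recorded as highest concentration tested. At the GI50, growth is halved.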 Active and inactive are the calls of the source. Cut-off read from the data, not from the text of the source: active = GI50 up to about 1.1 µM and inactive = higher.

The text below walks through data of ChEMBL document CHEMBL1201862, “PubChem BioAssay data set” (2004).

Some test systems named below: SW-620; SF-268; MCF7; TK-10; HOP-92; SN12C; CCRF-CEM; NCI-H522; LOX IMVI; EKVX; HCC 2998; NCI-H460; Hs-578T; RPMI-8226; MDA-N; HL-60; NCI-H226; HOP-62; OVCAR-5; SR.
Assay in all cases: DTP human tumour cell line panel, 48 h

For the compound `CC(C)(C)N1C=[N+](C(C)(C)C)CC1`, the GI50 in the assay on SW-620, in the assay on SF-268, with MCF7, in the assay on TK-10, with HOP-92 and in the assay with SN12C was > 100 µM (inactive) each time. Further, the GI50 with CCRF-CEM, in the assay on NCI-H522, with LOX IMVI, in the assay on EKVX, with HCC 2998 and with NCI-H460 was > 100 µM (inactive) each time. In addition, the GI50 with Hs-578T, in the assay with RPMI-8226, in the assay with MDA-N, in the assay with HL-60, in the assay on NCI-H226 and in the assay with HOP-62 was > 100 µM (inactive) in each case. The GI50 in the assay with OVCAR-5 and with SR was > 100 µM (inactive) in each case.

For `NCCCN1c2ccccc2Sc2ccc(Cl)cc21`, the GI50 in the assay with SW-620 is 2.9 µM (inactive); in the assay with SF-268, 8.17 µM (inactive); with MCF7 it was 1.76 µM (inactive); in the assay on TK-10, 5.96 µM (inactive); with HOP-92, > 10 µM (inactive); in the assay on SN12C, 6 µM (inactive). Further, the GI50 in the assay on CCRF-CEM is 3.19 µM (inactive); with NCI-H522 it was 3.2 µM (inactive); with LOX IMVI, 3.29 µM (inactive); in the assay on EKVX it was > 7.36 µM (inactive); with HCC 2998 it was 2.12 µM (inactive); with NCI-H460, 3.33 µM (inactive). Further, the GI50 is 5.01 µM (inactive) with Hs-578T; 3.95 µM (inactive) in the assay with RPMI-8226; 3.69 µM (inactive) in the assay with MDA-N; 9.98 µM (inactive) in the assay on HL-60; 9.95 µM (inactive) in the assay on NCI-H226; > 10 µM (inactive) in the assay with HOP-62. Also, the GI50 in the assay on OVCAR-5 is > 5.28 µM (inactive); with SR, 2.18 µM (inactive).

For `c1ccc(CCCCNCc2cc(CNCCCCc3ccccc3)cc(CNCCCCc3ccccc3)c2)cc1`, the concentration for 50% growth inhibition (GI50) with SW-620 was 0.301 µM (active); in the assay with SF-268 it was 1.53 µM (inactive); in the assay with MCF7, 0.178 µM (active); with TK-10, 1.82 µM (inactive); in the assay with HOP-92, 1.45 µM (inactive); in the assay with SN12C, 3.63 µM (inactive). Moreover, the GI50 in the assay with CCRF-CEM is 0.211 µM (active); in the assay with NCI-H522, 0.667 µM (active); in the assay with LOX IMVI, 0.308 µM (active); with EKVX, 1.64 µM (inactive); in the assay with HCC 2998, 0.149 µM (active); with NCI-H460 it was 0.364 µM (active). Further, the GI50 is 1.5 µM (inactive) with Hs-578T; 0.16 µM (active) with RPMI-8226; 2.36 µM (inactive) in the assay with MDA-N; 0.226 µM (active) in the assay on HL-60; 2.6 µM (inactive) in the assay with NCI-H226; 1.75 µM (inactive) with HOP-62. Moreover, the GI50 in the assay with OVCAR-5 was 1.7 µM (inactive); in the assay on SR it was 0.216 µM (active).

On to `C=CN1CCN(c2ccccc2)P1(=O)Oc1ccccc1` (stereo not given), for which the GI50 with SW-620 is > 100 µM (inactive); in the assay with SF-268, > 100 µM (inactive); in the assay on MCF7, > 100 µM (inactive); with TK-10, 39.9 µM (inactive); with HOP-92, 50.9 µM (inactive); in the assay on SN12C, > 100 µM (inactive). Moreover, the GI50 in the assay on CCRF-CEM is > 100 µM (inactive); in the assay on NCI-H522, 31.6 µM (inactive); with LOX IMVI, > 100 µM (inactive); in the assay with EKVX, 45 µM (inactive); in the assay with HCC 2998, > 100 µM (inactive); with NCI-H460, > 100 µM (inactive). Also, the GI50 is 33.7 µM (inactive) in the assay on Hs-578T; > 100 µM (inactive) with RPMI-8226; 63.4 µM (inactive) in the assay on MDA-N; > 100 µM (inactive) with HL-60; 65.2 µM (inactive) in the assay on NCI-H226; > 100 µM (inactive) with HOP-62. Further, the GI50 in the assay on OVCAR-5 and in the assay with SR was > 100 µM (inactive) throughout.

Turning to `CC(C)c1cc2c(cc1S(=O)(=O)O)[C@@]1(C)CCC[C@@](C)(C(=O)O)C1CC2` (stereo not given in full), the GI50 with SW-620, in the assay on SF-268, in the assay with MCF7, with TK-10, with HOP-92 and in the assay with SN12C was > 100 µM (inactive) throughout. Further, the GI50 with CCRF-CEM, in the assay on NCI-H522, with LOX IMVI, in the assay on EKVX, in the assay with HCC 2998 and with NCI-H460 was > 100 µM (inactive) in each case. The GI50 with Hs-578T, with RPMI-8226, in the assay with MDA-N, with HL-60, with NCI-H226 and in the assay on HOP-62 was > 100 µM (inactive) throughout. In addition, the GI50 with OVCAR-5 and with SR was > 100 µM (inactive) each time.

Regarding `COc1ccc(/N=C\c2ccc(N(CCC#N)CCC#N)cc2)cc1`, the GI50 with SW-620 is 61.1 µM (inactive); with SF-268, 53.2 µM (inactive); in the assay with MCF7, > 100 µM (inactive); with TK-10, 64.1 µM (inactive); in the assay with HOP-92, 99.3 µM (inactive); in the assay on SN12C, > 89.3 µM (inactive). Moreover, the GI50 is 48.1 µM (inactive) in the assay on CCRF-CEM; > 95.1 µM (inactive) with NCI-H522; > 28.9 µM (inactive) in the assay on LOX IMVI; > 100 µM (inactive) in the assay on EKVX; 38.8 µM (inactive) in the assay with HCC 2998; 43.1 µM (inactive) in the assay with NCI-H460. Moreover, the GI50 was > 100 µM (inactive) in the assay on Hs-578T; 59 µM (inactive) in the assay on RPMI-8226; 63.8 µM (inactive) in the assay with MDA-N; 22.3 µM (inactive) with HL-60; > 100 µM (inactive) in the assay on NCI-H226; > 56.2 µM (inactive) in the assay with HOP-62. The GI50 is 55.5 µM (inactive) with OVCAR-5 and 90.8 µM (inactive) in the assay with SR.

In the case of `COc1cccc2c(=O)oc(-c3ccccc3C)nc12`, the GI50 in the assay on SW-620 was 40.6 µM (inactive); in the assay on SF-268, 43.3 µM (inactive); in the assay on MCF7 it was 33.7 µM (inactive); in the assay on TK-10, > 100 µM (inactive); with HOP-92 it was > 100 µM (inactive); in the assay with SN12C, 26.5 µM (inactive). Also, the GI50 in the assay with CCRF-CEM is 25.9 µM (inactive); in the assay on NCI-H522, 46.9 µM (inactive); in the assay on LOX IMVI, 18.3 µM (inactive); in the assay on EKVX, > 100 µM (inactive); in the assay on HCC 2998, 35 µM (inactive); with NCI-H460 it was 56.9 µM (inactive). The GI50 in the assay with Hs-578T is 43.5 µM (inactive); in the assay on RPMI-8226, 38.2 µM (inactive); in the assay on MDA-N it was 19.8 µM (inactive); in the assay on HL-60, 32 µM (inactive); with NCI-H226, 19.5 µM (inactive); in the assay on HOP-62 it was 27.3 µM (inactive). For the same compound, the GI50 in the assay with OVCAR-5 is 61.4 µM (inactive); in the assay with SR, 49.4 µM (inactive).

Turning to `COc1cc(/C=C/c2sc3ccccc3[n+]2C)ccc1N(C)C`, the GI50 in the assay on SW-620 is 5.07 µM (inactive); in the assay on SF-268, 13.8 µM (inactive); with MCF7 it was 4.45 µM (inactive); in the assay on TK-10 it was 13.2 µM (inactive); with HOP-92, 1.85 µM (inactive); in the assay with SN12C, 12.9 µM (inactive). For the same compound, the GI50 is 2.06 µM (inactive) in the assay with CCRF-CEM; 3.01 µM (inactive) in the assay on NCI-H522; 15.8 µM (inactive) in the assay with LOX IMVI; 21.8 µM (inactive) in the assay on EKVX; 21.8 µM (inactive) with HCC 2998; 6.11 µM (inactive) in the assay with NCI-H460. Further, the GI50 in the assay with Hs-578T is 41.3 µM (inactive); with RPMI-8226, 2.21 µM (inactive); in the assay with MDA-N it was 2.48 µM (inactive); in the assay on HL-60, 6.85 µM (inactive); in the assay on NCI-H226, 22.4 µM (inactive); in the assay on HOP-62, 17.9 µM (inactive). Also, the values for the GI50 in the assay on OVCAR-5 and with SR were 20.3 µM (inactive) and 1.94 µM (inactive), respectively.

With `COc1cc(-c2cc(=O)c3cc4c(cc3[nH]2)OCO4)cc(OC)c1O`, the GI50 with SW-620, in the assay with SF-268, in the assay on MCF7, in the assay with TK-10, with HOP-92 and with SN12C was > 10 µM (inactive) each time. Moreover, the GI50 with CCRF-CEM, in the assay on NCI-H522, in the assay with LOX IMVI, in the assay on EKVX, in the assay on HCC 2998 and in the assay on NCI-H460 was > 10 µM (inactive) throughout. Also, the GI50 in the assay with Hs-578T, in the assay with RPMI-8226, with MDA-N, with HL-60, in the assay with NCI-H226 and in the assay on HOP-62 was > 10 µM (inactive) in each case. For the same compound, the GI50 with OVCAR-5 and in the assay with SR was > 10 µM (inactive) throughout.

As to `N#Cc1ccc(/N=N/N2CCCC2)cc1`, the GI50 was > 100 µM (inactive) in the assay with SW-620; > 100 µM (inactive) with SF-268; > 100 µM (inactive) with MCF7; 95.9 µM (inactive) with TK-10; > 100 µM (inactive) with HOP-92; > 100 µM (inactive) in the assay with SN12C. Also, the GI50 in the assay with CCRF-CEM was 43.7 µM (inactive); with NCI-H522 it was > 100 µM (inactive); with LOX IMVI it was > 100 µM (inactive); with EKVX it was 63.8 µM (inactive); with HCC 2998, > 100 µM (inactive); in the assay on NCI-H460, > 100 µM (inactive). Besides, the GI50 is > 100 µM (inactive) in the assay with Hs-578T; 40.2 µM (inactive) with RPMI-8226; > 100 µM (inactive) in the assay on MDA-N; 91.2 µM (inactive) in the assay with HL-60; > 100 µM (inactive) in the assay on NCI-H226; > 100 µM (inactive) in the assay on HOP-62. Moreover, the GI50 in the assay with OVCAR-5 is > 100 µM (inactive); with SR it was 15.2 µM (inactive).
